In US20110230430A1, “SAPONIN EXTRACT FROM SAPONARIA SPP. AND USES THEREOF” (NATIONAL RESEARCH COUNCIL OF CANADA, priority 2008, published 2011):

Key:
Format in all cases: cell-based, human
MDA-MB-231 cells [1] = assay: Dual Sensor: MitoCasp Assay in MDA-MB-231 breast cancer cells
Source text: (§1) Techniques to assay enzymatic and signaling processes involved in apoptosis have been developed as standard protocols. One example of an early step in apoptosis, is the release of cytochrome C from mitochondria and the activation of caspase-3. Induction of the caspases (a series of cytosolic proteases) is one of the most consistently observed features of apoptosis. Caspases are a family of proteolytic enzymes that transmit the apoptotic signal using a proteolytic cascade. […] Caspases 3 and 7 are effector caspases, central to the caspase cascade pathways. In particular, caspase-3 plays a central role in the process. When caspases are activated, they cleave target proteins; one of the most important of these is poly-(ADP-ribose) polymerase (PARP), which is a protein located in the nucleus. Therefore, assays detecting release of cytochrome C, detecting caspase-3 activity and detecting PARP degradation are effective determinants of apoptosis. The loss of mitochondrial membrane potential is known to occur during apoptosis. To analyze mitochondrial membrane potential, a cationic dye may be used which accumulates in the mitochondria of healthy cells. Collapse of the mitochondrial membrane potential during apoptosis prevents the dye from accumulating in the mitochondria resulting in a decrease in fluorescent intensity that can be detected with flow cytometry. Dual Sensor: MitoCasp™ (Cell Technology) used herein in the Examples is an assay that measures caspase 3/7 activity and cells with decreased mitochondrial membrane potential. In this assay, caspase 3/7 activity is detected using a cell permeable carboxyfluorescein labeled caspase inhibitor, which binds covalently to active caspases 3 and 7. Cells that contain bound inhibitor are detected by an increase in fluorescence when samples are analyzed by flow cytometry.
(§2) Following centrifugation at 500×g for 5 min, cell pellets were resuspended in PBS at 3.3×10^6 cells/mL. 300 μL cell suspension was mixed with 10 μL each of 30X Mitochondria Membrane Potential Dye and 30X Caspase 3/7 detection reagent. Following incubation for 60 min under normal growth conditions, cells were washed twice with 1× wash buffer and resuspended in 0.5 mL 1× wash buffer. Samples were analyzed by flow cytometry measuring the fluorescence emissions from 515 nm to 530 nm for caspase detection, and 574 nm to 600 nm for mitochondrial membrane potential detection.
The MDA-MB-231 cell line (ATCC #HTB-26) was derived from the pleural effusion of a patient with a breast adenocarcinoma (Cailleau et al., 1974). The cells were maintained in RPMI 1640 (Gibco) supplemented with 10% fetal bovine serum (Camera), 100 U/mL penicillin, 100 μg/mL streptomycin and 0.25 μg/mL amphotericin B. Cultures were maintained in medium at 37° C. with 5% CO2 and 100% relative humidity. […]

CRL-2522 cells = assay: Dual Sensor: MitoCasp Assay in CRL-2522 normal fibroblast cells
Source text: as §1, §2
CRL-2522 cells, acquired from ATCC, (American Type Culture Collection) are normal fibroblast cells that originated from human foreskin. CRL-2522 cells were maintained in RPMI 1640 medium (Gibco) supplemented with 10% fetal bovine serum (Cansera), 100 U/mL penicillin, 100 μg/mL streptomycin and 0.25 μg/mL amphotericin B. Cultures were maintained in medium at 37° C. with 5% CO2 and 100% relative humidity. […]

PC-3 cells = assay: Vybrant Apoptosis Assay Kit #2 in PC-3 cells
Source text: (§3) Another apoptotic assay is the Annexin-V detection of extracellular phosphatidlyserine (PS). Normally, phosphatidylserine is localized on the inner membrane of the plasmalemma. However, during the early stages of apoptosis, externalization of PS takes place. Annexin-V is a calcium binding protein which binds to PS and can be observed with annexin-V-FITC staining by flow cytometry (Martin, et al., 1995). Alexa Fluor® 488-labeled Annexin V, which has a high affinity for PS, is used to detect apoptotic cells by binding to PS on the outer surface of the cell. Propidium iodide staining is used concurrently to detect dead cells. When cells are analyzed by flow cytometry apoptotic cells show Annexin V staining, late apoptotic cells show PI and Annexin V staining, and dead cells show only PI staining. The Vybrant® Apoptosis Assay Kit #2 (Molecular Probes™) used herein in the Examples is an assay that measures Annexin-V positive cells.
PC-3 cells (ATCC #CRL-1435) were derived from a prostate adenocarcinoma (Kaighn et al., 1979). They were maintained in RPMI 1640 medium (Gibco) supplemented with 10% fetal bovine serum (Cansera), 100 U/mL penicillin, and 100 μg/mL streptomycin and 0.25 μg/mL amphotericin B. Cultures were maintained in medium at 37° C. with 5% CO2 and 100% relative humidity.
PC-3 cells were seeded in tissue culture flasks with regular growth medium and maintained under normal conditions. […] Following incubation under normal growth conditions for the specified time, cells were washed once with cold phosphate-buffered saline (PBS) (137 mM NaCl, 2.7 mM KCl, 4.3 mM Na2HPO4.7H2O, 1.4 mM KH2PO4) and harvested as previously described. Assays were carried out according to instructions given in kits. All Flow Cytometry was performed using a Coulter Epics XL (Beckman).

MDA-MB-231 cells [2] = assay: Vybrant Apoptosis Assay Kit #2 in MDA-MB-231 cells
Source text: as §3
The MDA-MB-231 cell line (ATCC #HTB-26) was derived from the pleural effusion of a patient with a breast adenocarcinoma (Cailleau et al., 1974). The cells were maintained in RPMI 1640 (Gibco) supplemented with 10% fetal bovine serum (Camera), 100 U/mL penicillin, 100 μg/mL streptomycin and 0.25 μg/mL amphotericin B. Cultures were maintained in medium at 37° C. with 5% CO2 and 100% relative humidity.
MDA-MB-231 cells were treated with PC1448 and assayed for apoptosis as previously described for PC-3 cells.

[3] = 5.0 μM saponin, 36 hours (comparison of saponins)
[4] = CRL-2522 cells, 1.25 μM PC1464, 36 hr
[5] = CRL-2522 cells, 2.5 μM PC1464, 36 hr
[6] = CRL-2522 cells, 5.0 μM PC1464, 36 hr
[7] = CRL-2522 cells, 7 μM PC1464, 10 hr
[8] = CRL-2522 cells, 7 μM PC1464, 20 hr
[9] = CRL-2522 cells, 7 μM PC1464, 30 hr
[10] = CRL-2522 cells, 10.0 μM PC1464, 36 hr

With Segetoside I [PC1464] the “Cells with caspase 3/7 activity” value (MDA-MB-231 cells [1]; 1.25 μM PC1464, 35 hr) was 16.7%, the “Cells with decreased mitochondrial membrane potential” value (MDA-MB-231 cells [1]; 1.25 μM PC1464, 35 hr) was 15.6% and the “Cells with caspase 3/7 activity” value (MDA-MB-231 cells [1]; 2.5 μM PC1464, 35 hr) was 32.4%. For the same substance, the “Cells with decreased mitochondrial membrane potential” value (MDA-MB-231 cells [1]; 2.5 μM PC1464, 35 hr) was 21.2%, the “Cells with caspase 3/7 activity” value (MDA-MB-231 cells [1]; 3.5 μM PC1464, 12 hr) was 20.0% and the “Cells with decreased mitochondrial membrane potential” value (MDA-MB-231 cells [1]; 3.5 μM PC1464, 12 hr) was 19.9%. The “Cells with caspase 3/7 activity” value (MDA-MB-231 cells [1]; 3.5 μM PC1464, 24 hr) was 27.5%, the “Cells with decreased mitochondrial membrane potential” value (MDA-MB-231 cells [1]; 3.5 μM PC1464, 24 hr) was 51.5% and the “Increase in number of cells with caspase 3/7 activity” value (MDA-MB-231 cells [1]; 3.5 μM PC1464, 36 hours) was “two fold”. For the same substance, the “Increase in number of cells with reduced mitochondrial membrane potential” value (MDA-MB-231 cells [1]; 3.5 μM PC1464, 36 hours) was “eight fold”, the “Cells with caspase 3/7 activity” value (MDA-MB-231 cells [1]; 3.5 μM PC1464, 36 hr) was 29.1% and the “Cells with decreased mitochondrial membrane potential” value (MDA-MB-231 cells [1]; 3.5 μM PC1464, 36 hr) was 52.0%. The “Cells with caspase 3/7 activity” value (MDA-MB-231 cells [1]; 5.0 μM PC1464, 35 hr) was 53.0%, the “Cells with decreased mitochondrial membrane potential” value (MDA-MB-231 cells [1]; 5.0 μM PC1464, 35 hr) was 32.8% and the “Cells with caspase 3/7 activity” value (MDA-MB-231 cells [1]; [3]) was 39.9%. For the same substance, the “Cells with decreased mitochondrial membrane potential” value (MDA-MB-231 cells [1]; [3]) was 13.7%, the “Cells with caspase 3/7 activity” value (MDA-MB-231 cells [1]; 10.0 μM PC1464, 35 hr) was 55.7% and the “Cells with decreased mitochondrial membrane potential” value (MDA-MB-231 cells [1]; 10.0 μM PC1464, 35 hr) was 39.6%. For the same substance, the “Concentration of greatest effect on apoptosis” value (MDA-MB-231 cells [1]; 35 hours) was “above 5 μM”, the “Induction of apoptosis at concentrations as low as” value (MDA-MB-231 cells [1]; 35 hours) was 2.5 µM and the “Cells with caspase 3/7 activity” value (CRL-2522 cells; [4]) was 1.7%. The “Cells with decreased mitochondrial membrane potential” value (CRL-2522 cells; [4]) was 1.7%, the “Cells with caspase 3/7 activity” value (CRL-2522 cells; [5]) was 3.2% and the “Cells with decreased mitochondrial membrane potential” value (CRL-2522 cells; [5]) was 1.4%. For the same substance, the “Cells with caspase 3/7 activity” value (CRL-2522 cells; [6]) was 14.4%, the “Cells with decreased mitochondrial membrane potential” value (CRL-2522 cells; [6]) was 1.3% and the “Effect on apoptosis (in words)” value (CRL-2522 cells; CRL-2522 cells, 7 μM PC1464, 10-30 hr) was “minimal effect”. For the same substance, the “Cells with caspase 3/7 activity” value (CRL-2522 cells; [7]) was 3.2%, the “Cells with decreased mitochondrial membrane potential” value (CRL-2522 cells; [7]) was 4.4% and the “Cells with caspase 3/7 activity” value (CRL-2522 cells; [8]) was 11.7%. The “Cells with decreased mitochondrial membrane potential” value (CRL-2522 cells; [8]) was 4.4%, the “Cells with caspase 3/7 activity” value (CRL-2522 cells; [9]) was 16.9% and the “Cells with decreased mitochondrial membrane potential” value (CRL-2522 cells; [9]) was 5.1%. The “Cells with caspase 3/7 activity” value (CRL-2522 cells; [10]) was 19.9%, the “Cells with decreased mitochondrial membrane potential” value (CRL-2522 cells; [10]) was 2.2% and the “Cells with Caspase 3/7 activity and decreased mitochondrial membrane potential vs untreated (in words)” value (CRL-2522 cells; CRL-2522 cells, PC1464 10.0-1.25 μM, 36 hours) was “slight increase”. The “Apoptosis in non-cancerous cell line (summary in words)” value (CRL-2522 cells; fibroblast cell line CRL-2522, summary of the Examples) was “no or little apoptosis”, the Annexin-V positive cells (PC-3 cells; 7 μM PC1464, 10 hr) was 21.0% and the Annexin-V positive cells (PC-3 cells; 7 μM PC1464, 20 hr) was 30.9%. The Annexin-V positive cells (PC-3 cells; 7 μM PC1464, 30 hr) was 44.7%, the “Increase in Annexin V positive cells vs untreated” value (PC-3 cells; 7 μM or 14 μM PC1464, 30 hr) was “three to six fold” and the Annexin-V positive cells (PC-3 cells; 14 μM PC1464, 10 hr) was 11.5%. The Annexin-V positive cells (PC-3 cells; 14 μM PC1464, 20 hr) was 28.9%, the Annexin-V positive cells (PC-3 cells; 14 μM PC1464, 30 hr) was 49.4% and the Annexin-V positive cells (MDA-MB-231 cells [2]; 7 μM PC1464, 12 hr) was 28.8%. For the same substance, the Annexin-V positive cells (MDA-MB-231 cells [2]; 7 μM PC1464, 24 hr) was 39.7%, the “Increase in Annexin V positive cells vs untreated” value (MDA-MB-231 cells [2]; 7 μM PC1464, 36 hour) was 3 fold and the Annexin-V positive cells (MDA-MB-231 cells [2]; 7 μM PC1464, 36 hr) was 49.3%.
